Test results from patent US4873236A, “Condensed diazepinones, processes for preparing them and pharmaceutical compositions containing these compounds” (Dr. Karl Thomae GmbH, priority 1986, dated 1989).

Key:
[1] = test system: muscarinic receptors of the atrium; assay: Dissociation constants (KB) on spontaneously beating right atrium, methacholine antagonism; set-up: species or system guinea pig; settings: Table IV
Method: (§1) Dissociation constants (KB values) were determined in vitro on the guinea pig ileum and spontaneously beating atrium. The ileum was removed and incubated in Krebs-Henseleit solution in an organ bath. Contractions were produced by means of increasing concentrations of methacholine (M) so that a full concentration-activity curve could be plotted. Then M was washed out, the test substance was added and kept in contact for 30 minutes and again a concentration-activity curve was plotted with M. The dissociation constant was calculated according to Arunlakshana and Schild (Brit. J. Pharmacol. 14, 48, 1959) from the dosage ratio (DR), i.e. the extent of displacement of the concentration-activity curve.
(§2) In the isolated, spontaneously beating right atrium M reduced the heart rate as a function of the concentration. This effect was stopped by the addition of an antimuscarinic. Dissociation constants for the muscarinic receptors of the atrium were obtained in the same way as described above. A comparison of the dissociation constants measured in the two different tissues made it possible to identify cardioselective substances.

[2] = molecular target: T1, muscarinic receptors of the atrium (Cavia porcellus, UniProt H0VRN8); assay: as above; set-up: species or system guinea pig; settings: guinea pig spontaneously beating atrium, methacholine, 30 min contact; read-out: KB Heart (dissociation constant)
T1 construct: In the isolated, spontaneously beating right atrium; from tissue; host or cells: isolated right atrium of guinea pig
T1 sequence (H0VRN8 1-466): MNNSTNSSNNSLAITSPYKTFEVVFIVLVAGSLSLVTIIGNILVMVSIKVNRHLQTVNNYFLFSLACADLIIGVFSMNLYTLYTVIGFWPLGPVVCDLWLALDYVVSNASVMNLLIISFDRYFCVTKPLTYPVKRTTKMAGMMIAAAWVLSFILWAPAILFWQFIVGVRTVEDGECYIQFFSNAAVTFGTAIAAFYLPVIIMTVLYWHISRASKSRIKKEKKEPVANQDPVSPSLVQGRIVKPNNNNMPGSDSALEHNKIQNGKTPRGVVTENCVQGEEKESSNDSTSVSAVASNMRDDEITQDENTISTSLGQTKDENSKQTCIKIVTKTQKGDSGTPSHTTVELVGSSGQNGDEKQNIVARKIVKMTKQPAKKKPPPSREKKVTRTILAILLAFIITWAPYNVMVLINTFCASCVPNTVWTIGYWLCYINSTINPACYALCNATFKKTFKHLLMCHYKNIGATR
Method: as §1, §2

[3] = molecular target: T2, muscarinic receptors, lachrymal glands (Rattus norvegicus, UniProt P08483); assay: Receptor bonding test in vivo, lachrymal glands (3H-NMS); set-up: species or system female rats; settings: iv, 0.5 h, in vivo binding, i.v., 113 ng/kg 3H-NMS, read-out: ID50 Lachrymal glands
T2 construct: from tissue; host or cells: lachrymal glands of female rats, labelled in vivo
T2 sequence (P08483 whole entry): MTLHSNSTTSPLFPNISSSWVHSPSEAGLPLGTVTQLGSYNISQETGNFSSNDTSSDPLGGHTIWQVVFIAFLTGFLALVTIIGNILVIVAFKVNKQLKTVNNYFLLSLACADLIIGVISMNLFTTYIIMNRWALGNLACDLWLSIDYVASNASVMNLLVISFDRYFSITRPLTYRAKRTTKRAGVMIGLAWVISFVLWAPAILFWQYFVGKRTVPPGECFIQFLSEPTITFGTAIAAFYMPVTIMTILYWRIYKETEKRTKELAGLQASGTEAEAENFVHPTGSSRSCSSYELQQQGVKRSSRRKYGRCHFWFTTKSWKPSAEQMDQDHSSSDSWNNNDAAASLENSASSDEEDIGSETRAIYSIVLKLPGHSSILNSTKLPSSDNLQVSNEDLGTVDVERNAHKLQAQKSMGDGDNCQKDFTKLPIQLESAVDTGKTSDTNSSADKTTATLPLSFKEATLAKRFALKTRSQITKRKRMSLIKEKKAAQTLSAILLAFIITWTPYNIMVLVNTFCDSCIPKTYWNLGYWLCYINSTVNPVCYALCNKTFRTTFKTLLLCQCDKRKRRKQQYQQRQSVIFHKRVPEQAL
Method: For these experiments, female rats with a body weight of about 200 g were used. Before the start of the test the animals were anaesthetised with a dosage of 1.25 g/kg of urethane. The animals were each given the prescribed dosage of test substance by intravenous injection. After 15 minutes, 113 ng/kg of ^3 H-N-methylscopolamine (^3 H-NMS) were administered by the same route. After another 15 minutes the animals were killed and the heart, bronchi and lachrymal glands were removed. These organs were dissolved in Soluene R and the radioactivity was determined. The measurements were assumed to be total bonding. […] ID50 values were determined for the individual organs using these tests.

[4] = molecular target: T3, muscarinic receptors, submandibular gland (Rattus norvegicus, UniProt P08483); assay: Receptor bonding test in vitro, submandibular gland (displacement of 3H-N-methylscopolamine); type: binding, Sprague-Dawley rats; settings: 0.3 nmolar 3H-NMS, 30° C., 45 min
T3 construct: After removal of the heart and submandibular gland; from tissue; host or cells: submandibular gland of male Sprague-Dawley rats, homogenate
T3 sequence (P08483 whole entry): as above

CCCN(CCC)CC1CCCCN1CCNC(=O)N1c2ccccc2C(=O)Nc2cccnc21 (stereo not shown) [Substance A, 5,11-dihydro-11-[[[2-[2-[(dipropylamino)methyl]-piperidin-1-yl]ethyl]amino]carbonyl]-6H-pyrido[2,3-b][1,4]benzodiazepin-6-one]
efficacy compared with X and Y (in words) [1]: significantly more effective than X and Y
Kb [2]: 2.45 nM
ED50 [3]: > 10 mg/kg

CCN(CC)CC1CCCCN1CCNC(=O)N1c2ccccc2NC(=O)c2csc(C)c21 (stereo not shown) [Substance B, 4-[[[2-[2-[(diethylamino)methyl]-piperidin-1-yl]ethyl]amino]carbonyl]-4,9-dihydro-3-methyl-10H-thieno[3,4-b][1,5]benzodiazepin-10-one]
efficacy compared with X and Y (in words) [1]: significantly more effective than X and Y
Kb [2]: 0.24 nM
IC50 [4]: 15 nM
ED50 [3]: > 1 mg/kg

CCN(CC)CC1CCCCN1CCNC(=O)N1c2cc(Cl)ccc2C(=O)Nc2cccnc21 (stereo not shown) [Substance C, 9-chloro-11-[[[2-[2-[(diethylamino)methyl]-piperidin-1-yl]ethyl]amino]carbonyl]-5,11-dihydro-6H-pyrido[2,3-b][1,4]benzodiazepin-6-one]
efficacy compared with X and Y (in words) [1]: significantly more effective than X and Y
Kb [2]: 4.9 nM
IC50 [4]: 150 nM
